Results on one compound are retold here after patent publication US10696951B2, “Method for culturing pluripotent stem cells” (JTEC Corporation, priority 2014, dated 2020).

For the experiment, the system named is 253G1 cells. The experiment is described as follows: Rotary culture of 253G1 cells with RWV bioreactor in 10 mL vessel: spheroid formation and proliferation rate. The class given is cell-based, human. The conditions noted are these: for Proliferation rate: 5 days, detached with 5 mM EDTA and TrypLE Select. The method, then: To perform three-dimensional culture, 253G1 cells to be seeded were detached into small spheroids (loose cell masses each having a diameter of approximately 50 μm to 200 μm) each consisting of 20 to 40 cells with 5 mM EDTA. The detached 4.9×10^5 253G cells (small spheroids obtained through chemical disrupting) were seeded in an mTeSR1 medium (10 mL) containing the ROCK (Rho-associated kinase) inhibitor Y27632 (Wako Pure Chemical Industries, Ltd., 10 μM) or an mTeSR1 medium (10 mL) free of the ROCK inhibitor Y27632 in a 10 mL RWV vessel (diameter: 5 cm; Synthecon, Incorporated), and rotary-cultured with an RWV bioreactor (Synthecon, Incorporated) at 37° C. and 8 rpm for 3 days. After culturing, a photograph of a phase contrast image of spherical spheroids produced in the culture medium was taken with the inverted microscope Axio Observer (Carl Zeiss) (FIG. 1). In addition, the diameter of each spherical spheroid was measured, and the size distribution was investigated (FIG. 2).
Subsequently, the spherical spheroids were collected, and disrupted by pipetting with a pipette to disperse the cells. The number of the cells was counted by using the automated cell counter, Countess™ (Invitrogen). From the total number of the cells in the culture medium, the proliferation rate relative to the number of the cells seeded (4.9×10^5 cells) was calculated (total number of cells/4.9×10^5 cells).
To determine a more suitable ROCK inhibitor concentration, 253G1 cells were rotary-cultured for 3 days under the same conditions as in the above except that three ROCK inhibitor concentrations (3 μM, 10 μM, or 30 μM) were used. After culturing, the number of spherical spheroids formed was 10 in the case of 3 μM, 50 in the case of 10 μM, and 20 in the case of 30 μM.
To determine a more suitable number of cells to be seeded, 253G1 cells detached into small spheroids each consisting of approximately 20 to 40 cells with 5 mM EDTA and TrypLE™ Select were seeded at 4.27×10^5, 8.55×10^5, or 1.28×10^6 cells in a 10 mL RWV vessel, and rotary-cultured for 5 days in an mTeSR1 medium containing or free of the ROCK inhibitor Y27632 (10 μM) by the same method as in the above (1). After culturing, the number of the cells was counted and the proliferation rate was calculated in the same manner as in the above.
Further, the 253G1 cells detached into small spheroids each consisting of approximately 20 to 40 cells with only 5 mM EDTA were seeded in a 10 mL RWV vessel at a number of cells seeded in the above preferred range, and rotary-cultured in a 10 μM ROCK inhibitor Y27632-containing mTeSR1 medium (10 mL) for 3 days.

[1] abbreviates: 10 μM in mTeSR1, 4.9×10^5 cells seeded, 10 mL RWV vessel, 8 rpm, 3 days, detached with 5 mM EDTA.
The mark [2] stands for this setting: 1st run, 10 μM, 4.9 × 10^5 cells seeded, 10 mL vessel, 3 days, only 5 mM EDTA.
The mark [3] stands for this setting: 2nd run, 10 μM, 4.1 × 10^5 cells seeded, 10 mL vessel, 3 days, only 5 mM EDTA.

Turning to `C[C@@H](N)[C@H]1CC[C@H](C(=O)Nc2ccncc2)CC1.Cl.Cl.O` (relative stereo) [Y27632, (R)-(+)-trans-N-(4-pyridyl)-4-(1-aminoethyl)-cyclohexanecarboxamide.2HClH2O], the “Number of spherical spheroids formed” value by setting is: (3 μM, 10 mL vessel, 3 days) 10; (10 μM, 10 mL vessel, 3 days) 50; (30 μM, 10 mL vessel, 3 days) 20. Further, the “Proliferation rate (total number of cells / cells seeded)” value under setting [1] is reported as 6.5 fold. The “Total number of cells” value was 3.1 × 10^6 cells under setting [1]; 3.1×10^6 cells (10 μM in mTeSR1, 4.9×10^5 cells seeded, 10 mL RWV vessel, 8 rpm, 3 days, detached with 5 mM EDTA, listed as ROCK inhibitor); 2.4 × 10^6 cells under setting [3]. Moreover, the Proliferation rate is, setting by setting: (10 μM, 1.28 × 10^6 cells seeded/10 mL vessel) 1.43-fold; (10 μM, 4.27 × 10^5 cells seeded/10 mL vessel) 4.78-fold; (10 μM, 8.55 × 10^5 cells seeded/10 mL vessel) 1.93-fold. For the same compound, the “Formation of spherical spheroids” value (10 μM, 4.9×10^5 cells seeded, 10 mL vessel, 3 days, inhibitor-free medium gave no spheroids) was “numerous spherical spheroids were formed”. Besides, the “Proliferation rate versus ROCK inhibitor-free medium” value (10 μM, 10 mL vessel, experiment repeated a plurality of times) is “significantly increased”. For the same compound, the “Number of only cells of spheroids” value is, setting by setting: under setting [2], 2.4 × 10^6 cells; under setting [3], 1.4 × 10^6 cells. In addition, the Number of spheroids entry runs as follows: under setting [2], “approximately 130 spheroids”; under setting [3], “approximately 100 spheroids”. The “Proliferation rate of only cells of spheroids” value reads like this: under setting [2], 4.9 fold; under setting [3], 3.41 fold. Besides, the “Proliferation rate (total number of cells)” value under setting [3] stood at 5.85 fold.
